Experimental data from US7572579B2, “Screening method for a ribonuclease H inhibitor of a reverse transcriptase” (priority 2004, dated 2009).
Like-named read-outs stand apart in the source and are kept apart here.

Experiments:
[1] = target: T1, RNase H activity of wild type reverse transcriptase of HIV (Human immunodeficiency virus type 1 group M subtype B, UniProt P04585); conditions: wild type RT, with preincubation
[2] = target: T2, RNase H activity of Y188L mutant enzyme of HIV (Human immunodeficiency virus type 1 group M subtype B, UniProt P04585, Y775L); conditions: with preincubation
[3] = target: T1, RNase H activity of wild type reverse transcriptase of HIV; experiment: biochemical
[4] = target: polymerase activity of wild type reverse transcriptase of HIV (Human immunodeficiency virus type 1 group M subtype B, UniProt P04585); experiment: biochemical; conditions: Polymerase IC50, wild type RT
[5] = target: T2, RNase H activity of Y188L mutant enzyme of HIV; experiment: biochemical
[6] = target: polymerase activity of Y188L mutant enzyme of HIV (Human immunodeficiency virus type 1 group M subtype B, UniProt P04585, Y775L); experiment: biochemical
virus proliferation = conditions: reported in literature; cited from earlier work
[7] = with preincubation, with metal cofactors
[8] = with preincubation, without metal cofactors

Row | Compound | RNaseH IC50 ([1]; with metal cofactors) | RNaseH IC50 ([1]; without metal cofactors) | RNaseH IC50 ([2]; with metal cofactors) | RNaseH IC50 ([2]; without metal cofactors) | IC50 [3] [µM] | IC50 [4, 7] [µM] | IC50 [4, 8] [µM] | IC50 ([4]; without preincubation) [µM] | IC50 [5] [µM] | IC50 [6, 7] [µM] | IC50 [6, 8] [µM] | IC50 ([6]; without preincubation) [µM] | inhibition of virus proliferation in cell-based assay (virus proliferation)
1 | Cc1ccc(C(=O)Nc2ccc(S(=O)(=O)O)c3cc(S(=O)(=O)O)cc(S(=O)(=O)O)c23)cc1NC(=O)c1cccc(NC(=O)Nc2cccc(C(=O)Nc3cc(C(=O)Nc4ccc(S(=O)(=O)O)c5cc(S(=O)(=O)O)cc(S(=O)(=O)O)c45)ccc3C)c2)c1 [suramin, Suramin sodium] | ≈POL | ≈POL | ≈POL | ≈POL | > 77.1 | 2.47 | 16.2 | > 77.1 | > 77.1 | 2.47 | 10 | > 77.1 | 
2 | O=C(O)C(=O)CC(=O)c1ccc(NC(=O)c2ccccc2)s1 [Compound 1, 4-[5-(benzoylamino)thien-2-yl]-2,4-dioxobutanoic acid] |  |  |  |  |  |  |  |  |  |  |  |  | can not inhibit virus proliferation
